Values quoted from earlier work, collected in US20070254026A1, “SOFTGEL CAPSULES” (FORBES MEDI-TECH INC., priority 2006, published 2007).

Tested on: benign prostate hypertrophy
Conditions: Berges.2000; Coleman.2002

CC[C@H](CC[C@@H](C)[C@H]1CC[C@H]2[C@@H]3CC=C4C[C@@H](O)CC[C@]4(C)[C@H]3CC[C@]12C)C(C)C [sitosterol, β-sitosterol]
effective dose reducing symptoms of benign prostate hypertrophy: 20 to 60 mg per day
